Molecules are shown by their SMILES.

The test system of experiment [1] is ADCY3 promoter. The experiment in a line: ADCY3 promoter methylation after in vitro demethylation (bisulfite sequencing). The note with it: KATO III cells, 10 μM, 96 hrs, FIG. 5D. In kind it is cell-based, human. The procedure: To assay the methylation status of the ADCY3 promoter, genomic DNA was bisulfite-treated using the EZ DNA Methylation-Gold Kit (ZYMO Research, USA), and treated with methylation-specific PCR primers (Table 3) that were designed using EpiDesigner (Sequenom, USA).
A methylation-specific high-resolution melting assay (MS-HRM) was performed using 10 ng of bisulfite-treated genomic DNA and ResoLight dye in a LightCycler 480 (Roche Applied Science) according to the manufacturer's protocol. Results were analyzed using Gene Scanning software (Roche). For bisulfite sequencing, the promoter region containing 39 CpG sites was amplified from the genomic DNA of bisulfite-treated gastric cells, cloned into the TOPO-TA vector (Invitrogen), and sequenced using the 3730xl DNA analyzer (Applied Biosystems).
To investigate the effects of promoter demethylation on ADCY3 expression, KATO III cells were incubated for 96 hrs in a culture medium with or without 5-Aza-2′-deoxycytidine (5-Aza-dC; Sigma Aldrich, USA) at a final concentration of 10 μM, and the mRNA level of ADCY3 was measured using qRT-PCR.

Experiment [2] has as its system ADCY3. The experiment in a line: ADCY3 mRNA level by qRT-PCR after demethylation. Particulars: KATO III cells, 10 μM, 96 hrs, relative to the negative control, FIG. 5E. In kind it is cell-based, human. The procedure:
qRT-PCR reactions were performed using a LightCycler 480 (Roche Applied Science, UK) and ABI 7500 Fast Real-Time PCR system (Applied Biosystems). Results were quantified either by using β-actin for normalization (relative quantification), or by standard curve-based absolute quantification. To investigate the effects of promoter demethylation on ADCY3 expression, KATO III cells were incubated for 96 hrs in a culture medium with or without 5-Aza-2′-deoxycytidine (5-Aza-dC; Sigma Aldrich, USA) at a final concentration of 10 μM, and the mRNA level of ADCY3 was measured using qRT-PCR.
Background: Real-time PCR tracks product formation cycle by cycle.

Consider `Nc1ncn([C@H]2C[C@H](O)[C@@H](CO)O2)c(=O)n1` [5-Aza-dC, 5-Aza-2′-deoxycytidine], for which the “methylation of CpG sites in the ADCY3 promoter” value in experiment [1] is reported as “demethylation of CpG sites”. Besides, in experiment [2], the “ADCY3 mRNA expression level” value is recorded as “recovery of ADCY3 mRNA expression level”.

The record behind these values is US10435752B2, “Use of ADCY3 for diagnosis and treatment of gastric cancer” (NATIONAL CANCER CENTER, priority 2012, dated 2019).
